Assay results from patent US20230365576A1, “BRM Targeting Compounds And Associated Methods Of Use” (Prelude Therapeutics Incorporated, priority 2022, published 2023).

Legend:
SMARCA4 = molecular target: T1, SMARCA4 (Homo sapiens, UniProt P51532); assay: SMARCA4 HiBiT degradation assay in HeLa cells; format: cell-based; conditions: 18 hours; for Dmax: HeLa
T1 construct: SMARCA4-HiBiT knock-in Hela monoclonal cell (CS3023226) were purchased from Promega; host or cells: HeLa (CRISPR HiBiT knock-in monoclonal line, heterozygous)
T1 sequence (P51532 whole entry): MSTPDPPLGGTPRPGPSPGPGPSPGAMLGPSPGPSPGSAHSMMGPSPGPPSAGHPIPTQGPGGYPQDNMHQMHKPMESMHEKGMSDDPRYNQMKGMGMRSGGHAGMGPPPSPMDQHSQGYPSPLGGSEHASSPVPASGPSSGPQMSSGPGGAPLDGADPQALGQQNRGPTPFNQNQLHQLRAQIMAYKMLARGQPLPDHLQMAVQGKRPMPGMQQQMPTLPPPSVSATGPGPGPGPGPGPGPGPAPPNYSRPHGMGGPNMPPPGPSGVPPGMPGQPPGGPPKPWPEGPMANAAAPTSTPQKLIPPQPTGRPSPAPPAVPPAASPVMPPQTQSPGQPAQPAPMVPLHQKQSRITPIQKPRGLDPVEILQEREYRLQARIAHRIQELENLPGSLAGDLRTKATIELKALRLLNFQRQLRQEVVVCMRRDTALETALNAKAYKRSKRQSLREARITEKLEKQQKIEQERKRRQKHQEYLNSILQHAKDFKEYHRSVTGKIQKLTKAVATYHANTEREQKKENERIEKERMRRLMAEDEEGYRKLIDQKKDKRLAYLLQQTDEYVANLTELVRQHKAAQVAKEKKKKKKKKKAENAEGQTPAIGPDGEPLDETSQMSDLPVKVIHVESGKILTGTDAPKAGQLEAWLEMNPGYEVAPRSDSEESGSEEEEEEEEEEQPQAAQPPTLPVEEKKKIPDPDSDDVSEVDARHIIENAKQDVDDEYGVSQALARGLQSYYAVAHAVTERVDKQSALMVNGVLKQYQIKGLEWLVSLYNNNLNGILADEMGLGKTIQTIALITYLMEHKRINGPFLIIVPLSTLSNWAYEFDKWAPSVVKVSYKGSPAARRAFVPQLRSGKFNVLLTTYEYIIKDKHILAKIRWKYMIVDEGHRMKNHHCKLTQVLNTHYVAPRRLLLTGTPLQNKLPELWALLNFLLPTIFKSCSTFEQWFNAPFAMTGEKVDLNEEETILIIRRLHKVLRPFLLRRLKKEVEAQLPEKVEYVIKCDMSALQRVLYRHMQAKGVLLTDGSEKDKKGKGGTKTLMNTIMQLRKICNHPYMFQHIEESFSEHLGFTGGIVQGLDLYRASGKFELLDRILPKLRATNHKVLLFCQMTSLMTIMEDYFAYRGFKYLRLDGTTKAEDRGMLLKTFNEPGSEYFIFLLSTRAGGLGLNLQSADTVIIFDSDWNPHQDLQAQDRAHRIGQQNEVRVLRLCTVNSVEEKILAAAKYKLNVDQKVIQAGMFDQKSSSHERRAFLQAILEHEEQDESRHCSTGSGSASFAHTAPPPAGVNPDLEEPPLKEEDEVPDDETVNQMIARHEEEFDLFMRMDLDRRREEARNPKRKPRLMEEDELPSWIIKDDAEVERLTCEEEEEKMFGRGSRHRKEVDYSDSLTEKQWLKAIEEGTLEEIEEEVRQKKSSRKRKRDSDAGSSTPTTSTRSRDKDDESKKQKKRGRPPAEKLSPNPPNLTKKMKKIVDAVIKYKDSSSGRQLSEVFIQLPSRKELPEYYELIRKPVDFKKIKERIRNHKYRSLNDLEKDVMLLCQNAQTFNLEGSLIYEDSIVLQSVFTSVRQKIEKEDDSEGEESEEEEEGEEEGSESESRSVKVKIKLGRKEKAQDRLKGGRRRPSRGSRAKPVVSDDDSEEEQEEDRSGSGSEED
Summary of the method: (§1)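 Degradation measured as HiBiT luminescence (Nano-Glo lytic reagent) after 18 h compound exposure at 37° C. Cells were HeLa clones carrying heterozygous HiBiT tags on SMARCA2 or SMARCA4, 2500 per well; compounds at 3-fold serial dilution from 10 μM.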

SMARCA2 = molecular target: T2, SMARCA2 (Homo sapiens, UniProt P51531); assay: SMARCA2 HiBiT degradation assay in HeLa cells; format: cell-based; conditions: 18 hours; for DC50: read-out: SMARCA2 IC50; for Dmax: HeLa
T2 construct: SMARCA2-HiBiT knock-in Hela monoclonal cell (CS302366); host or cells: HeLa (CRISPR HiBiT knock-in monoclonal line, heterozygous)
T2 sequence (P51531 whole entry): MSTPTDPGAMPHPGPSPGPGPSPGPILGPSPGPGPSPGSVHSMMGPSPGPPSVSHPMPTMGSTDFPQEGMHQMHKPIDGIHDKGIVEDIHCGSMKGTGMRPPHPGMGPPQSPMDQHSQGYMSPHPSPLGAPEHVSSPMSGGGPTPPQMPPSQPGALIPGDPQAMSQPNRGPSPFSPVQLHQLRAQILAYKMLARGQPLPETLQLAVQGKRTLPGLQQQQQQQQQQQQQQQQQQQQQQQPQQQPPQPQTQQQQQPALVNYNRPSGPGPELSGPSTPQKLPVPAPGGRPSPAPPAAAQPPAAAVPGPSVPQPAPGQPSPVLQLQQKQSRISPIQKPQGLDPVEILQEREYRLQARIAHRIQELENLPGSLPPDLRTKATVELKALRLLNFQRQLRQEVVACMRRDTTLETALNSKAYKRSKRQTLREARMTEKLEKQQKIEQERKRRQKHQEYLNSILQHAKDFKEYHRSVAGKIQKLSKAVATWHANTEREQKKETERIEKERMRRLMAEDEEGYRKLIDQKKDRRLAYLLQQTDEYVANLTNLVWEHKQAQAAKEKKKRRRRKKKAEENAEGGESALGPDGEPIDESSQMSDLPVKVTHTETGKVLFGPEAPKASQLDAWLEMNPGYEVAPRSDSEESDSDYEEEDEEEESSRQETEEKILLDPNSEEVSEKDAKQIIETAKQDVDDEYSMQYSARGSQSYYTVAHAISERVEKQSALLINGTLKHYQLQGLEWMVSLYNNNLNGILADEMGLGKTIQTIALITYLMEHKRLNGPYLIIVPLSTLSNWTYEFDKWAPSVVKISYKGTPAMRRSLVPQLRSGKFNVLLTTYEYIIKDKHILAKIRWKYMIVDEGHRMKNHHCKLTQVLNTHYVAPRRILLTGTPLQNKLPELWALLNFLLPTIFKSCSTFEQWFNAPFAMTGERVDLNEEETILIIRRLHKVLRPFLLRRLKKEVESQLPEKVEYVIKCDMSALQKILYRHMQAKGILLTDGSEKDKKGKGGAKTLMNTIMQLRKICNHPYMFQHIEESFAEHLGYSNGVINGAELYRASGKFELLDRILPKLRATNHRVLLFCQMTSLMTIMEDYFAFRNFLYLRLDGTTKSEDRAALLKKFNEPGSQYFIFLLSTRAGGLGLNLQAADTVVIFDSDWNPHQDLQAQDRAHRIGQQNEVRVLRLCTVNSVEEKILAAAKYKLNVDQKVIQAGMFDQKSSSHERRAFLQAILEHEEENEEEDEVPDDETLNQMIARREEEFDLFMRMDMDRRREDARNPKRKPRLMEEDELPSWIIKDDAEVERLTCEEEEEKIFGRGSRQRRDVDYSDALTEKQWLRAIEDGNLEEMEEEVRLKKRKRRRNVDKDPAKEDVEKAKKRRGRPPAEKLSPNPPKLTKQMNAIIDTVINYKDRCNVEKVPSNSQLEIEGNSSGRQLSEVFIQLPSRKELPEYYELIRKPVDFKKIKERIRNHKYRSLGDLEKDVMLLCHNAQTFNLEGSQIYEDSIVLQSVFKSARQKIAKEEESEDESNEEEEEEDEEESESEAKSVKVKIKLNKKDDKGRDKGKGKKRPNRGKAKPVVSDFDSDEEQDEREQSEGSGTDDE
Summary of the method: as §1

| Structure (SMILES) | DC50 (SMARCA4) [nM] | Dmax (SMARCA4) [%] | DC50 (SMARCA2) [nM] | Dmax (SMARCA2) [%] | SMARCA4 DMax % (SMARCA4) | SMARCA2 DMax % (SMARCA2) |
| --- | --- | --- | --- | --- | --- | --- |
| CC1(C)CN(CC2CCN(c3ccc4c(c3)C(=O)N([C@H]3CCC(=O)NC3=O)C4)CC2)CCN1C(=O)N1CCN2c3cc(-c4cccc(F)c4O)nnc3NC[C@]2(C(F)F)C1 [Example 65, (S)-3-(6-(4-((4-((R)-6a-(difluoromethyl)-2-(3-fluoro-2-hydroxyphenyl)-6,6a,7,8,9,10-hexahydro-5H-pyrazino[1′,2′:4,5]pyrazino[2,3-c]pyridazine-8-carbonyl)-3,3-dimethylpiperazin-1-yl)methyl)piperidin-1-yl)-1-oxoisoindolin-2-yl)piperidine-2,6-dione] | < 100 | 50 to 75 | < 100 | > 75 |  |  |
| C[C@@H]1CN(CC2CCN(c3ccc4c(c3)C(=O)N(C3CCC(=O)NC3=O)C4=O)CC2)C[C@H](C)N1C(=O)N1CCN2c3cc(-c4cc(F)cc(F)c4O)nnc3NCC2(C)C1 (stereo partly drawn) [Example 36, 5-(4-(((3S,5R)-4-(2-(3,5-difluoro-2-hydroxyphenyl)-6a-methyl-6,6a,7,8,9,10-hexahydro-5H-pyrazino[1′,2′:4,5]pyrazino[2,3-c]pyridazine-8-carbonyl)-3,5-dimethylpiperazin-1-yl)methyl)piperidin-1-yl)-2-(2,6-dioxopiperidin-3-yl)isoindoline-1,3-dione] | < 100 | > 75 | < 100 | > 75 |  |  |
| C[C@H]1CN(CC2CCN(c3ccc4c(c3)C(=O)N(C3CCC(=O)NC3=O)C4)CC2)C[C@H](C)N1C(=O)N1CCN2c3cc(-c4cc(F)cc(F)c4O)nnc3NC[C@H]2C1 (stereo partly drawn) [Example 47, 3-(6-(4-(((3S,5S)-4-((S)-2-(3,5-difluoro-2-hydroxyphenyl)-6,6a,7,8,9,10-hexahydro-5H-pyrazino[1′,2′:4,5]pyrazino[2,3-c]pyridazine-8-carbonyl)-3,5-dimethylpiperazin-1-yl)methyl)piperidin-1-yl)-1-oxoisoindolin-2-yl)piperidine-2,6-dione] | < 100 | 50 to 75 | < 100 | > 75 |  |  |
| CCC12CNc3nnc(-c4cccc(Cl)c4O)cc3N1CCN(C(=O)N1CCN(CC3CCN(c4ccc5c(c4)C(=O)N([C@H]4CCC(=O)NC4=O)C5)CC3)CC1(C)C)C2 (single isomer, unassigned) [Example 76] | < 100 | 50 to 75 | < 100 | > 75 |  |  |
| O=C1CCC(N2Cc3ccc(N4CC[C@@H](CN5CC[C@@H](CN6CCN7c8cc(-c9cc(F)cc(F)c9O)nnc8NC[C@H]7C6)C5)C4)cc3C2=O)C(=O)N1 (stereo partly drawn) [Example 52, 3-(6-((S)-3-(((R)-3-(((S)-2-(3,5-difluoro-2-hydroxyphenyl)-5,6,6a,7,9,10-hexahydro-8H-pyrazino[1′,2′:4,5]pyrazino[2,3-c]pyridazin-8-yl)methyl)pyrrolidin-1-yl)methyl)pyrrolidin-1-yl)-1-oxoisoindolin-2-yl)piperidine-2,6-dione] | < 100 | 50 to 75 | < 100 | > 75 |  |  |
| C[C@@H]1CN(CC2CCN(c3ccc4c(c3)C(=O)N(C3CCC(=O)NC3=O)C4)CC2)C[C@H](C)N1C(=O)N1CCN2c3cc(-c4cccc(F)c4O)nnc3NCC2(C)C1 (single isomer, unassigned) [Example 12] | < 100 |  | < 100 |  | A (A=Dmax>75%) | A (A=Dmax>75%) |
| CC1(C)CN(CC2CCN(c3ccc4c(c3)C(=O)N([C@H]3CCC(=O)NC3=O)C4)CC2)CCN1C(=O)N1CCN2c3cc(-c4cccc(F)c4O)nnc3NCC2(C(F)(F)F)C1 (single isomer, unassigned) [Example 100] | < 100 | 50 to 75 | < 100 |  |  | A (A=Dmax>75%) |
| C[C@@H]1CN(CC2CCN(c3ccc4c(c3)C(=O)N([C@H]3CCC(=O)NC3=O)C4)CC2)C[C@@H](C)N1C(=O)N1CCN2c3cc(-c4cccc(F)c4O)nnc3NC[C@]2(C(F)F)C1 [Example 67, (S)-3-(6-(4-(((3R,5R)-4-((R)-6a-(difluoromethyl)-2-(3-fluoro-2-hydroxyphenyl)-6,6a,7,8,9,10-hexahydro-5H-pyrazino[1′,2′:4,5]pyrazino[2,3-c]pyridazine-8-carbonyl)-3,5-dimethylpiperazin-1-yl)methyl)piperidin-1-yl)-1-oxoisoindolin-2-yl)piperidine-2,6-dione] | < 100 | 50 to 75 | < 100 | 50 to 75 |  |  |
| CC1(C)CN(CC2CCN(c3ccc4c(c3)C(=O)N([C@H]3CCC(=O)NC3=O)C4)CC2)CCN1C(=O)N1CCN2c3cc(-c4cccc(F)c4O)nnc3NCC2(C(F)(F)F)C1 (single isomer, unassigned) [Example 101] | > 1000 |  | < 100 |  | C (C=Dmax<50%) | B (B=50%<Dmax≤75%) |
| O=C1CCC(N2Cc3ccc(N4CCC(CN5C[C@@H]6[C@H](C5)[C@H]6CN5CCN6c7cc(-c8cc(F)cc(F)c8O)nnc7NC[C@H]6C5)C(F)(F)C4)cc3C2=O)C(=O)N1 (single isomer, unassigned) [Example 40] | < 100 | 50 to 75 | < 100 |  |  | B (B=50%<Dmax≤75%) |
| C[C@@H]1CN(CC2CCN(c3ccc4c(c3)C(=O)N([C@H]3CCC(=O)NC3=O)C4)CC2)C[C@@H](C)N1C(=O)N1CCN2c3cc(-c4cccc(F)c4O)nnc3NCC2(C(F)(F)F)C1 (single isomer, unassigned) [Example 97] | 100 to 1000 |  | < 100 |  | C (C=Dmax<50%) | A (A=Dmax>75%) |
| CCC12CNc3nnc(-c4cccc(Cl)c4O)cc3N1CCN(C(=O)N1C[C@H](C)N(CC3CCN(c4ccc5c(c4)C(=O)N([C@H]4CCC(=O)NC4=O)C5)CC3)C[C@H]1C)C2 (single isomer, unassigned) [Example 77] | < 100 | 50 to 75 | < 100 | > 75 |  |  |
| CC1(C)CC(CN2CCN(c3ccc4c(c3)C(=O)N([C@H]3CCC(=O)NC3=O)C4)CC2)CCN1C(=O)N1CCN2c3cc(-c4cccc(F)c4O)nnc3NCC2(C)C1 (single isomer, unassigned) [Example 124] | < 100 |  | < 100 |  | B (B=50%<Dmax≤75%) | A (A=Dmax>75%) |
| CCC12CNc3nnc(-c4cccc(F)c4O)cc3N1CCN(C(=O)C1(F)CCN(CC3CCN(c4ccc5c(c4)C(=O)N([C@H]4CCC(=O)NC4=O)C5)CC3)CC1)C2 (single isomer, unassigned) [Example 107] | 100 to 1000 |  | < 100 | > 75 | C (C=Dmax<50%) |  |
| C[C@H]1CN2c3cc(-c4cc(F)cc(F)c4O)nnc3NC[C@H]2CN1C(=O)N1CCN(CC2CCN(c3ccc4c(c3)C(=O)N(C3CCC(=O)NC3=O)C4)CC2)CC1(C)C (stereo partly drawn) [Example 25, 3-(6-(4-((4-((6aS,9S)-2-(3,5-difluoro-2-hydroxyphenyl)-9-methyl-6,6a,7,8,9,10-hexahydro-5H-pyrazino[1′,2′:4,5]pyrazino[2,3-c]pyridazine-8-carbonyl)-3,3-dimethylpiperazin-1-yl)methyl)piperidin-1-yl)-1-oxoisoindolin-2-yl)piperidine-2,6-dione] | < 100 | < 50 | < 100 | > 75 |  |  |
| C[C@@H]1CN(C[C@H]2CN(c3ccc4c(c3)CN(C3CCC(=O)NC3=O)C4=O)CCO2)C[C@H](C)N1C(=O)N1CCN2c3cc(-c4cccc(F)c4O)nnc3NC[C@H]2C1 (stereo partly drawn) [Example 3, 3-(5-((S)-2-(((3R,5S)-4-((S)-2-(3-fluoro-2-hydroxyphenyl)-6,6a,7,8,9,10-hexahydro-5H-pyrazino[1′,2′:4,5]pyrazino[2,3-c]pyridazine-8-carbonyl)-3,5-dimethylpiperazin-1-yl)methyl)morpholino)-1-oxoisoindolin-2-yl)piperidine-2,6-dione] | < 100 | < 50 | < 100 | > 75 |  |  |
| CCC12CNc3nnc(-c4cccc(F)c4O)cc3N1CCN(C(=O)N1CCN(CC3CCN(c4ccc5c(c4)C(=O)N(C4CCC(=O)NC4=O)C5)CC3)CC1(C)C)C2 (mixture of isomers) [Example 8, 3-(6-(4-((4-(6a-ethyl-2-(3-fluoro-2-hydroxyphenyl)-6,6a,7,8,9,10-hexahydro-5H-pyrazino[1′,2′:4,5]pyrazino[2,3-c]pyridazine-8-carbonyl)-3,3-dimethylpiperazin-1-yl)methyl)piperidin-1-yl)-1-oxoisoindolin-2-yl)piperidine-2,6-dione] | < 100 | 50 to 75 | < 100 | > 75 |  |  |
| CCC12CNc3nnc(-c4cccc(F)c4O)cc3N1CCN(C(=O)N1[C@H](C)CN(CC3CCN(c4ccc5c(c4)C(=O)N(C4CCC(=O)NC4=O)C5)CC3)C[C@@H]1C)C2 (single isomer, unassigned) [Example 86] | < 100 |  | < 100 |  | A (A=Dmax>75%) | A (A=Dmax>75%) |
| O=C1CCC(N2Cc3ccc(N4CCC(CN5CCC(F)(C(=O)N6CCN7c8cc(-c9cc(F)cc(F)c9O)nnc8NC[C@H]7C6)CC5)CC4)cc3C2=O)C(=O)N1 (stereo partly drawn) [Example 55, 3-(6-(4-((4-((S)-2-(3,5-difluoro-2-hydroxyphenyl)-6,6a,7,8,9,10-hexahydro-5H-pyrazino[1′,2′:4,5]pyrazino[2,3-c]pyridazine-8-carbonyl)-4-fluoropiperidin-1-yl)methyl)piperidin-1-yl)-1-oxoisoindolin-2-yl)piperidine-2,6-dione] | < 100 | < 50 | < 100 | 50 to 75 |  |  |
| CC12CNc3nnc(-c4cccc(F)c4O)cc3N1CCN(C[C@H]1CC[C@H](CN3CCN(c4ccc5c(c4)C(=O)N([C@H]4CCC(=O)NC4=O)C5)CC3)CC1)C2 (single isomer, unassigned) [Example 117] | < 100 | 50 to 75 | < 100 | > 75 |  |  |
